Results from article PMC11953117 (Cancer Chemotherapy and Pharmacology, 2025).

Experiment: Safety endpoints (treatment-emergent AEs, CTCAE v4) in three phase 1 studies
Type: in vivo, human
Text: AEs were collected throughout the trials, graded using Common Terminology Criteria for Adverse Events v4. Treatment-emergent AEs (TEAEs), defined as any AE that started after the first dose of study treatment or that started prior to dosing and worsened during on treatment period (by investigator report of a change in intensity) following exposure to treatment, were included in the analysis.
The rash AE endpoint pooled the following Medical Dictionary for Regulatory Activities (MedDRA) preferred terms: rash maculo-papular, rash macular, rash, rash generalized, rash papular and rash pruritic, while the diarrhea AE and hyperglycemia AE included the MedDRA preferred terms diarrhea and hyperglycemia, respectively.
The grade selection for diarrhea and rash was based on clinical relevance in terms of limiting quality of life; for hyperglycemia the grade was higher considering this is a pharmacodynamic effect of AKT inhibition and often seen as asymptomatic change of laboratory value only.

[1] = Continuous BID, 80 mg, N=8, pooled studies
[2] = Continuous BID, 160 mg, N=5, pooled studies
[3] = Continuous BID, 240 mg, N=13, pooled studies
[4] = Continuous BID, 320 mg, N=18, pooled studies
[5] = Continuous BID, 400 mg, N=16, pooled studies
[6] = Continuous BID, 480 mg, N=6, pooled studies
[7] = Continuous BID, 600 mg, N=2, pooled studies
[8] = Total, all doses and schedules, N=277
[9] = [2/5] BID, 640 mg, N=14, pooled studies
[10] = [2/5] BID, 800 mg, N=14, pooled studies
[11] = [4/3] BID, 360 mg, N=8, pooled studies
[12] = [4/3] BID, 480 mg, N=163, pooled studies
[13] = [4/3] BID, 640 mg, N=10, pooled studies
[14] = in total, across all doses and schedules

## NC1(C(=O)N[C@@H](CCO)c2ccc(Cl)cc2)CCN(c2ncnc3[nH]ccc23)CC1 [capivasertib, 4-amino-N-[(1S)-1-(4-chlorophenyl)-3-hydroxypropyl]-1-(7H-pyrrolo[2,3-d]pyrimidin– 4-yl)piperidine-4-carboxamide]
[1]
  AE grade ≥ 1: 8 (100) n (%)
  AE grade ≥ 3: 2 (25.0) n (%)
  AEDD (AE leading to dose discontinuation): 0 n (%)
  AEDM (AE leading to dose modification): 2 (25.0) n (%)
  Diarrhea AE grade ≥ 2: 0 n (%)
  Hyperglycemia AE grade ≥ 3: 0 n (%)
  Increased BG > 13.9 mmol/L: 0 n (%)
  Rash AE grade ≥ 2: 1 (12.5) n (%)
  SAE: 2 (25.0) n (%)
[2]
  AE grade ≥ 1: 5 (100) n (%)
  AE grade ≥ 3: 0 n (%)
  AEDD (AE leading to dose discontinuation): 0 n (%)
  AEDM (AE leading to dose modification): 1 (20.0) n (%)
  Diarrhea AE grade ≥ 2: 0 n (%)
  Hyperglycemia AE grade ≥ 3: 0 n (%)
  Increased BG > 13.9 mmol/L: 0 n (%)
  Rash AE grade ≥ 2: 1 (20.0) n (%)
  SAE: 1 (20.0) n (%)
[3]
  AE grade ≥ 1: 12 (92.3) n (%)
  AE grade ≥ 3: 4 (30.8) n (%)
  AEDD (AE leading to dose discontinuation): 1 (7.7) n (%)
  AEDM (AE leading to dose modification): 2 (15.4) n (%)
  Diarrhea AE grade ≥ 2: 4 (30.8) n (%)
  Hyperglycemia AE grade ≥ 3: 2 (15.4) n (%)
  Increased BG > 13.9 mmol/L: 4 (30.8) n (%)
  Rash AE grade ≥ 2: 3 (23.1) n (%)
  SAE: 0 n (%)
[4]
  AE grade ≥ 1: 18 (100) n (%)
  AE grade ≥ 3: 10 (55.6) n (%)
  AEDD (AE leading to dose discontinuation): 3 (16.7) n (%)
  AEDM (AE leading to dose modification): 8 (44.4) n (%)
  Diarrhea AE grade ≥ 2: 5 (27.8) n (%)
  Hyperglycemia AE grade ≥ 3: 2 (11.1) n (%)
  Increased BG > 13.9 mmol/L: 3 (16.7) n (%)
  Rash AE grade ≥ 2: 5 (27.8) n (%)
  SAE: 4 (22.2) n (%)
[5]
  AE grade ≥ 1: 16 (100) n (%)
  AE grade ≥ 3: 15 (93.8) n (%)
  AEDD (AE leading to dose discontinuation): 7 (43.8) n (%)
  AEDM (AE leading to dose modification): 15 (93.8) n (%)
  Diarrhea AE grade ≥ 2: 10 (62.5) n (%)
  Hyperglycemia AE grade ≥ 3: 4 (25.0) n (%)
  Increased BG > 13.9 mmol/L: 7 (43.8) n (%)
  Rash AE grade ≥ 2: 8 (50.0) n (%)
  SAE: 6 (37.5) n (%)
[6]
  AE grade ≥ 1: 6 (100) n (%)
  AE grade ≥ 3: 6 (100) n (%)
  AEDD (AE leading to dose discontinuation): 4 (66.7) n (%)
  AEDM (AE leading to dose modification): 5 (83.3) n (%)
  Diarrhea AE grade ≥ 2: 5 (83.3) n (%)
  Hyperglycemia AE grade ≥ 3: 2 (33.3) n (%)
  Increased BG > 13.9 mmol/L: 2 (33.3) n (%)
  Rash AE grade ≥ 2: 3 (50.0) n (%)
  SAE: 6 (100) n (%)
[7]
  AE grade ≥ 1: 2 (100) n (%)
  AE grade ≥ 3: 2 (100) n (%)
  AEDD (AE leading to dose discontinuation): 2 (100) n (%)
  AEDM (AE leading to dose modification): 1 (50.0) n (%)
  Diarrhea AE grade ≥ 2: 1 (50.0) n (%)
  Hyperglycemia AE grade ≥ 3: 0 n (%)
  Increased BG > 13.9 mmol/L: 1 (50.0) n (%)
  Rash AE grade ≥ 2: 2 (100) n (%)
  SAE: 2 (100) n (%)
[8]
  AE grade ≥ 1: 274 (98.9) n (%)
  AE grade ≥ 3: 182 (65.7) n (%)
  AEDD (AE leading to dose discontinuation): 51 (18.4) n (%)
  AEDM (AE leading to dose modification): 139 (50.2) n (%)
  Diarrhea AE grade ≥ 2: 102 (36.8) n (%)
  Hyperglycemia AE grade ≥ 3: 72 (26.0) n (%)
  Increased BG > 13.9 mmol/L: 126 (45.5) n (%)
  Rash AE grade ≥ 2: 73 (26.4) n (%)
  SAE: 107 (38.6) n (%)
[9]
  AE grade ≥ 1: 14 (100) n (%)
  AE grade ≥ 3: 11 (78.6) n (%)
  AEDD (AE leading to dose discontinuation): 2 (14.3) n (%)
  AEDM (AE leading to dose modification): 2 (14.3) n (%)
  Diarrhea AE grade ≥ 2: 3 (21.4) n (%)
  Hyperglycemia AE grade ≥ 3: 7 (50.0) n (%)
  Increased BG > 13.9 mmol/L: 8 (57.1) n (%)
  Rash AE grade ≥ 2: 2 (14.3) n (%)
  SAE: 7 (50.0) n (%)
[10]
  AE grade ≥ 1: 14 (100) n (%)
  AE grade ≥ 3: 8 (57.1) n (%)
  AEDD (AE leading to dose discontinuation): 1 (7.1) n (%)
  AEDM (AE leading to dose modification): 8 (57.1) n (%)
  Diarrhea AE grade ≥ 2: 3 (21.4) n (%)
  Hyperglycemia AE grade ≥ 3: 5 (35.7) n (%)
  Increased BG > 13.9 mmol/L: 9 (64.3) n (%)
  Rash AE grade ≥ 2: 2 (14.3) n (%)
  SAE: 5 (35.7) n (%)
[11]
  AE grade ≥ 1: 6 (75.0) n (%)
  AE grade ≥ 3: 3 (37.5) n (%)
  AEDD (AE leading to dose discontinuation): 0 n (%)
  AEDM (AE leading to dose modification): 3 (37.5) n (%)
  Diarrhea AE grade ≥ 2: 4 (50.0) n (%)
  Hyperglycemia AE grade ≥ 3: 1 (12.5) n (%)
  Increased BG > 13.9 mmol/L: 3 (37.5) n (%)
  Rash AE grade ≥ 2: 1 (12.5) n (%)
  SAE: 0 n (%)
[12]
  AE grade ≥ 1: 163 (100) n (%)
  AE grade ≥ 3: 114 (69.9) n (%)
  AEDD (AE leading to dose discontinuation): 27 (16.6) n (%)
  AEDM (AE leading to dose modification): 90 (55.2) n (%)
  Diarrhea AE grade ≥ 2: 64 (39.3) n (%)
  Hyperglycemia AE grade ≥ 3: 45 (27.6) n (%)
  Increased BG > 13.9 mmol/L: 82 (50.3) n (%)
  Rash AE grade ≥ 2: 45 (27.6) n (%)
  SAE: 68 (41.7) n (%)
[13]
  AE grade ≥ 1: 10 (100) n (%)
  AE grade ≥ 3: 7 (70.0) n (%)
  AEDD (AE leading to dose discontinuation): 4 (40) n (%)
  AEDM (AE leading to dose modification): 2 (20.0) n (%)
  Diarrhea AE grade ≥ 2: 3 (30.0) n (%)
  Hyperglycemia AE grade ≥ 3: 4 (40.0) n (%)
  Increased BG > 13.9 mmol/L: 7 (70.0) n (%)
  Rash AE grade ≥ 2: 0 n (%)
  SAE: 6 (60.0) n (%)
[14]
  patients with AE grade ≥ 1: 98.9%
  patients with AEs grade ≥ 3: 65.7%
  patients with AEs leading to dose discontinuation: 18.4%
  patients with AEs leading to dose modification: 50.2%
  patients with SAEs: 38.6%
  patients with diarrhea AE grade ≥ 2: 36.8%
  patients with hyperglycemia grade ≥ 3: 26.0%
  patients with increased blood glucose > 13.9 mmol/L: 45.5%
  patients with rash AE grade ≥ 2: 26.4%
